Experimental data reported in US4966893A, “Method for treatment of senile dementia” (priority 1989, dated 1990).

What was measured:
synaptosomes = assay: electrically stimulated 3H-acetylcholine release from perfused synaptosomes; format: cell-based, rat; conditions: for electrically stimulated release of ACh (S2/S1 ratio): 10^-6 M drug during the last 25 minutes of perfusion, electrical field stimulation, FIGS. 2 and 3
Description: Using a different protocol, synaptosomes, which had been previously incubated with ^3 H-choline, as in the first series of experiments, were continually perfused with HEPES-buffered Krebs solution. The release of ACh was effected by subjecting the synaptosomes to electrical field stimulation, which more closely mimics physiological stimulation. […] The results obtained by calculating the ratio of the amounts of ACh released during the two periods of electrical stimulation (the areas under the curves, S2/S1) indicate that both Rb1 and Rg1 increase the electrically stimulated release. In addition, Rg1 stimulates the resting release of ^3 H-ACh, as indicated, by the increase in the resting efflux of ^3 H-ACh when the drug was first added. While the net amount of ^3 H-ACh released in each run can vary, depending on the amount of protein on the filter and aging of the synaptosomes, the S2/S1 ratio remains quite constant from run to run using a given chamber. Therefore, in each experiment the same chamber was used for both control and test-drug runs.

[1] = system: synaptosomes from whole rat brain; assay: release of 3H-ACh from synaptosomes under low [K] and high [K] conditions; format: cell-based; conditions: FIG. 1
Description: Pinched off nerve endings (synaptosomes) from whole rat brain were first incubated in the presence of the precursor ^3 H-choline, which is converted intracellularly to ^3 H-ACh. The release of ACh from synaptosomes was quantitated under low [K] and high [K] conditions intended to simulate physiological stimulation.

rat brain synaptosomes = assay: resting and voltage dependent uptake of 45Ca into synaptosomes; format: cell-based; conditions: compared with depolarized (52.5 K) uptake, FIG. 6
Excerpt: If this compound were acting as a non-specific depolarizing agent, one would predict the resting uptake of ^45 Ca would be stimulated several fold, to the same level as the depolarized (52.5 K) uptake.

Row | Compound | electrically stimulated release of ACh (S2/S1 ratio) (synaptosomes) | release of 3H-ACh [1] | resting uptake of 45Ca (rat brain synaptosomes) | resting release (resting efflux) of 3H-ACh (synaptosomes; 10^-6 M drug, when the drug was first added)
1 | CC(C)=CCC[C@](C)(O[C@@H]1O[C@H](CO[C@@H]2O[C@H](CO)[C@@H](O)[C@H](O)[C@H]2O)[C@@H](O)[C@H](O)[C@H]1O)[C@H]1CC[C@]2(C)[C@@H]1[C@H](O)C[C@@H]1[C@@]3(C)CC[C@H](O[C@@H]4O[C@H](CO)[C@@H](O)[C@H](O)[C@H]4O[C@@H]4O[C@H](CO)[C@@H](O)[C@H](O)[C@H]4O)C(C)(C)[C@@H]3CC[C@]12C [Rb1, ginsenoside Rb1] | increase | increased | only a minimal increase | 
2 | CC(C)=CCC[C@](C)(O[C@@H]1O[C@H](CO)[C@@H](O)[C@H](O)[C@H]1O)[C@H]1CC[C@]2(C)[C@@H]1[C@H](O)C[C@@H]1[C@@]3(C)CC[C@H](O)C(C)(C)[C@@H]3[C@@H](O[C@@H]3O[C@H](CO)[C@@H](O)[C@H](O)[C@H]3O)C[C@]12C [Rg1, ginsenoside Rg1] | increase |  |  | stimulates
